Here are results for two molecules from paper PMC6367941 (Journal of computer-aided molecular design, 2018).

A short description of the data set: UV-metric pKa measurement with methanol cosolvent. The data set is classed as physicochemical. The following applies: Yasuda-Shedlovsky extrapolation to 0% methanol from psKa in ISA methanol:water mixtures, 25.0 ± 0.5 °C, ~150 mM KCl, mean ± SEM of three replicates.

Regarding `COc1cccc(Nc2ncnc3ccccc23)c1.Cl` [SM09], the pKa1 was 5.37 ± 0.01.

As for `FC(F)(F)c1cccc(Nc2ncnc3ccccc23)c1` [SM02], the pKa1 was 5.03 ± 0.01.
